Each structure is given as a SMILES string.

In this assay the target is Human recombinant carboxy-terminal his-tagged LDHA (amino acids 2-332) (Homo sapiens, UniProt P00338). Nature of the assay: LDHA enzyme inhibition assay (NADH fluorescence). To be noted: LDHA IC50 (μM), 1 nM LDHA, NADH and pyruvate, stereochemistry of tested sample given.
Method: Test compounds were diluted in 100% DMSO with 1:3 serial dilutions. […] For the enzyme reaction, serially diluted compounds were added to a mixture of enzyme and NADH. […] Following the baseline read, pyruvate was added to the assay plates and the plates were read with excitation 340 nm and emission 480 nm for 10 minutes every 2.5 seconds. A suitable linear timeframe was selected (150-400 s) to calculate the slope of each concentration tested. The raw data were fitted to 4-parameter dose-response curves using the following equation:
fit=(A+((B−A)/(1+((C/x)̂D))))
inv=(C/((((B−A)/(y−A))−)̂(1/D)))
res=(y−fit) • where A=minimum y, B=maximum y, C=50% y max, and D=slope factor.
The curve bottom was set to the background rate (initial 5 second recording prior to addition of pyruvate) and curve top was set to no inhibitor (DMSO only) control wells rate.
The compounds of the present invention were tested for their capacity to inhibit LDHA activity and activation as described in the enzyme inhibition assay described above.
`O=C1CC(c2ccsc2)(c2cccc(OCC3CCOCC3)n2)NC(=O)C1Sc1ccccc1Cl` (single isomer, unassigned) [Example 209, 3-(2-chlorophenyl)sulfanyl-6-[6-(tetrahydropyran-4-ylmethoxy)-2-pyridyl]-6-(3-thienyl)piperidine-2,4-dione]: the IC50 is 0.006 µM.

As to `O=C1CCC(COc2cccc(C3(c4ccsc4)CC(=O)C(Sc4ccccc4Cl)C(=O)N3)n2)O1` (single isomer, unassigned) [Example 212, 3-(2-chlorophenyl)sulfanyl-6-[6-[(5-oxotetrahydrofuran-2-yl)methoxy]-2-pyridyl]-6-(3-thienyl)piperidine-2,4-dione], the IC50 was 0.03 µM. The result for `O=C1CC(c2ccsc2)(c2cccc(Sc3ccc(F)cc3)n2)NC(=O)C1Sc1ccccc1Cl` (single isomer, unassigned) [Example 213, 3-(2-chlorophenyl)sulfanyl-6-[6-(4-fluorophenyl)sulfanyl-2-pyridyl]-6-(3-thienyl)piperidine-2,4-dione] reads 0.034 µM; that for `CC(Oc1cccc(C2(c3ccsc3)CC(=O)C(Sc3ccccc3Cl)C(=O)N2)n1)C1CC1` (single isomer, unassigned) [Example 214, 3-(2-chlorophenyl)sulfanyl-6-[6-(1-cyclopropyl-ethoxy)-2-pyridyl]-6-(3-thienyl)piperidine-2,4-dione], 0.017 µM; that for `O=C1CC(c2ccsc2)(c2cccc(OCC3CC(F)(F)C3)n2)NC(=O)C1Sc1ccccc1Cl` (single isomer, unassigned) [Example 215, 3-(2-chlorophenyl)sulfanyl-6-[6-[(3,3-difluorocyclo-butyl)methoxy]-2-pyridyl]-6-(3-thienyl)piperidine-2,4-dione], 0.014 µM. Regarding `O=C1CC(c2ccsc2)(c2cccc(Oc3cc(F)cc(CO)c3)n2)NC(=O)C1Sc1ccccc1Cl` (single isomer, unassigned) [Example 216, 3-(2-chlorophenyl)sulfanyl-6-[6-[3-fluoro-5-(hydroxy-methyl)phenoxy]-2-pyridyl]-6-(3-thienyl)piperidine-2,4-dione], the IC50 amounted to 0.002 µM. Turning to `O=C1CC(c2ccsc2)(c2cccc(OCC3CCCO3)n2)NC(=O)C1Sc1ccccc1Cl` (single isomer, unassigned) [Example 221, 3-(2-chlorophenyl)sulfanyl-6-[6-(tetrahydrofuran-2-ylmethoxy)-2-pyridyl]-6-(3-thienyl)piperidine-2,4-dione], the IC50 amounted to 0.32 µM. For `O=C1CC(c2ccsc2)(c2cccc(OCC(F)F)n2)NC(=O)C1Sc1ccccc1Cl` (single isomer, unassigned) [Example 223, 3-(2-chlorophenyl)sulfanyl-6-[6-(2,2-difluoroethoxy)-2-pyridyl]-6-(3-thienyl) piperidine-2,4-dione], the IC50 amounted to 0.057 µM. As for `O=C1CC(c2ccsc2)(c2cccc(OCC3COC3)n2)NC(=O)C1Sc1ccccc1Cl` (single isomer, unassigned) [Example 225, 3-(2-chlorophenyl)sulfanyl-6-[6-(oxetan-3-ylmethoxy)-2-pyridyl]-6-(3-thienyl) piperidine-2,4-dione], the IC50 stood at 0.103 µM. Regarding `CCOCCOc1cccc(C2(c3ccsc3)CC(=O)C(Sc3ccccc3Cl)C(=O)N2)n1` (single isomer, unassigned) [Example 227, 3-(2-chlorophenyl)sulfanyl-6-[6-(2-ethoxyethoxy)-2-pyridyl]-6-(3-thienyl) piperidine-2,4-dione], the IC50 was 0.015 µM. As for `COCCCOc1cccc(C2(c3ccsc3)CC(=O)C(Sc3ccccc3Cl)C(=O)N2)n1` (single isomer, unassigned) [Example 228, 3-(2-chlorophenyl)sulfanyl-6-[6-(3-methoxypropoxy)-2-pyridyl]-6-(3-thienyl) piperidine-2,4-dione], the IC50 was 0.419 µM.

Values taken from patent US20170001990A1 (Genentech, Inc., priority 2014, published 2017).
